Assay [1] is described as follows: Hydroxyl oxygen radical absorbance capacity (HORAC) assay, fluorescent probe with hydrogen peroxide and Cobalt(II) fluoride, Gallic acid standard. As to conditions: individual antioxidant compound. As for the experimental part: (§1) Synergism was determined by comparing the antioxidant capacities of combinations of components measured by ORAC and HORAC, with expected or additive values of the individual compounds. The […], measure two different antioxidant properties, radical chain breaking and prevention of radical formation. The ORAC and HORAC assays are both fluorometric assays that use hydrogen atom transfer chemistry to detect oxidation of a fluorescent probe. In the ORAC assay, a free radical initiator is used to produce peroxyl radical probes, while in the HORAC assay, a hydroxyl radical initiator and fenton reagent are used to produce hydroxyl radical probes.
(§2) As reflected in the Examples below, the expected ORAC/HORAC is the combined (additive) antioxidant capacity of each individual antioxidant compound in the association, measured individually and assuming that each is functioning independently. The expected ORAC or HORAC value of a certain association can be calculated by using the following equation: ORAC or HORAC (total)=sum of ORAC or HORAC (compound n, individually) multiplied by the Percentage (compound n, of use in a cosmetic composition), n=1, 2, 3 . . . .
Similar to the ORAC assay, the HORAC assay is an in tubo assay designed to quantify the capacity of an antioxidant to avert the hydroxyl radical or anti-Fenton reaction. The hydroxyl radical, generated from hydrogen peroxide and Cobalt(II) fluoride (Fenton reaction), will quench a fluorescent probe by a hydrogen atom transfer reaction. Certain antioxidants can chelate the Co(II), preventing the generation of the hydroxyl radical and initially block or prevent the quenching of the probe. By quantifying the decay of fluorescence using a fluorometer, the degree of protection is determined comparing with a standard control antioxidant Gallic acid. The result is expressed in μMol equivalent of Gallic acid. Equipment that can automatically measure and calculate the capacity is commercially available, such as the VarioSkan flash microplate reader from Thermo Scientific. […]

Assay [2] in a line: Oxygen radical absorbance capacity (ORAC) assay, fluorescein probe with AAPH, Trolox standard. As to conditions: individual antioxidant compound. As to the method: as §1, §2
The ORAC assay is one of most commonly used methods to evaluate the capacity of antioxidants against ROS (reactive oxygen species), specific for peroxyl which is one of the most important free radicals present in the human skin environment. […] Azo-initiators are considered to produce the peroxyl radical by heating, which damages the fluorescent molecule, resulting in the loss of fluorescence. […] By quantifying the decay of fluorescence using a fluorometer, the degree of protection is determined comparing with a standard control antioxidant Trolox. […] Equipment that can automatically measure and calculate the capacity is commercially available, such as the VarioSkan flash microplate reader from Thermo Scientific.
References disclosing ORAC assays include: Cao G, Alessio H, Cutler R (1993). “Oxygen-radical absorbance capacity assay for antioxidants”. […]

On to `O=C1O[C@H]([C@@H](O)CO)C(O)=C1O` [Vitamin C, ascorbic acid], for which the HORAC result in assay [1] is on record as “No activity”. The ORAC in assay [2] was determined as 4456 μmolTolox/g.
Consider `O=C(O)[C@H]1O[C@@H](Oc2cc3oc(-c4ccccc4)cc(=O)c3c(O)c2O)[C@H](O)[C@@H](O)[C@@H]1O` [baicalin], for which the HORAC in assay [1] worked out at 2592 μmolGAE/g. For the same molecule, in assay [2], the ORAC is on record as 4759 μmolTolox/g.
With `COc1cc(/C=C/C(=O)O)ccc1O` [ferulic acid], the HORAC in assay [1] was determined as 9868 μmolGAE/g. Moreover, the ORAC in assay [2] came to 14272 μmolTolox/g.

These data come from patent US10898420B2, “Compositions containing phenolic compounds having synergistic antioxidant benefits” (L'OREAL, priority 2016, dated 2021).
